For one test, the target named is T1, Ba/F3 SLC-ROS cells (Homo sapiens, UniProt P08922).
T1 construct: SLC-ROS-S (SLC-ROS) was cloned from cDNA made from HCC78 cells; fused on or other part: GFP is co-expressed from an IRES in pMIG and is not fused; O95436 (Sodium-dependent phosphate transport protein 2B)
Nature of the test: Cell viability (MTS) assay, Ba/F3 SLC-ROS. The class given is cell-based. The settings on record: 72 hours, read-out: IC50 (the source's name). The method, then:
(§1) The parental Ba/F3 cell line was cultured in RPMI 1640 medium with 10% FBS, L-glutamine, penicillin/streptomycin and 15% WEHI-conditioned media. Ba/F3 cell lines were maintained at densities of 0.5×10^6 to 1.5×10^6 per ml of media. FIG-ROS and SLC-ROS Ba/F3 lines were created by infecting the parental Ba/F3 with retrovirus expressing either human FIG-ROS-S (indicated FIG-ROS herein) or SLC-ROS-S (indicated SLC-ROS herein). Stable transfectant lines were sorted for GFP expression on a FACS Aria® flow cytometer. Cells were counted daily using Guava ViaCount® reagent and Guava Personal Cell Analysis® flow cytometer. […] Early passage NIH3T3 cells were infected with retrovirus expressing either FIG-ROS or SLC-ROS and sorted for GFP expression as described above for Ba/F3 cells. HCC78 cells were cultured in RPMI 1640 medium with 10% FBS, L-glutamine, and penicillin/streptomycin. This media is referred to as RPMI-10% FBS herein.
(§2) […]. The Ba/F3 parental line was also tested. (O'Dwyer M E and Druker B J, Lancet Oncology 1, 207-211 (2000); Walters D K et al, Cancer Cell 10, 65-75 (2006); and Heukamp L C et al, Science Translational Medicine 4, 141ra191 (2012); […].

Another test concerns Ba/F3 parental cells. In words: Cell viability (MTS) assay, Ba/F3 parental. The class given is cell-based. The settings on record: Mus musculus, BaF3, read-out: IC50 (insensitive/resistant up to stated concentration). As for the experimental part: as §1, §2
The target of the next test is T2, Ba/F3 FIG-ROS cells (Homo sapiens, UniProt P08922).
T2 construct: fused on or other part: GFP is co-expressed from an IRES in pMIG and is not fused; Q9HD26 (Golgi-associated PDZ and coiled-coil motif-containing protein)
T2 sequence (P08922 whole entry, change not shown, the tested form may be a part): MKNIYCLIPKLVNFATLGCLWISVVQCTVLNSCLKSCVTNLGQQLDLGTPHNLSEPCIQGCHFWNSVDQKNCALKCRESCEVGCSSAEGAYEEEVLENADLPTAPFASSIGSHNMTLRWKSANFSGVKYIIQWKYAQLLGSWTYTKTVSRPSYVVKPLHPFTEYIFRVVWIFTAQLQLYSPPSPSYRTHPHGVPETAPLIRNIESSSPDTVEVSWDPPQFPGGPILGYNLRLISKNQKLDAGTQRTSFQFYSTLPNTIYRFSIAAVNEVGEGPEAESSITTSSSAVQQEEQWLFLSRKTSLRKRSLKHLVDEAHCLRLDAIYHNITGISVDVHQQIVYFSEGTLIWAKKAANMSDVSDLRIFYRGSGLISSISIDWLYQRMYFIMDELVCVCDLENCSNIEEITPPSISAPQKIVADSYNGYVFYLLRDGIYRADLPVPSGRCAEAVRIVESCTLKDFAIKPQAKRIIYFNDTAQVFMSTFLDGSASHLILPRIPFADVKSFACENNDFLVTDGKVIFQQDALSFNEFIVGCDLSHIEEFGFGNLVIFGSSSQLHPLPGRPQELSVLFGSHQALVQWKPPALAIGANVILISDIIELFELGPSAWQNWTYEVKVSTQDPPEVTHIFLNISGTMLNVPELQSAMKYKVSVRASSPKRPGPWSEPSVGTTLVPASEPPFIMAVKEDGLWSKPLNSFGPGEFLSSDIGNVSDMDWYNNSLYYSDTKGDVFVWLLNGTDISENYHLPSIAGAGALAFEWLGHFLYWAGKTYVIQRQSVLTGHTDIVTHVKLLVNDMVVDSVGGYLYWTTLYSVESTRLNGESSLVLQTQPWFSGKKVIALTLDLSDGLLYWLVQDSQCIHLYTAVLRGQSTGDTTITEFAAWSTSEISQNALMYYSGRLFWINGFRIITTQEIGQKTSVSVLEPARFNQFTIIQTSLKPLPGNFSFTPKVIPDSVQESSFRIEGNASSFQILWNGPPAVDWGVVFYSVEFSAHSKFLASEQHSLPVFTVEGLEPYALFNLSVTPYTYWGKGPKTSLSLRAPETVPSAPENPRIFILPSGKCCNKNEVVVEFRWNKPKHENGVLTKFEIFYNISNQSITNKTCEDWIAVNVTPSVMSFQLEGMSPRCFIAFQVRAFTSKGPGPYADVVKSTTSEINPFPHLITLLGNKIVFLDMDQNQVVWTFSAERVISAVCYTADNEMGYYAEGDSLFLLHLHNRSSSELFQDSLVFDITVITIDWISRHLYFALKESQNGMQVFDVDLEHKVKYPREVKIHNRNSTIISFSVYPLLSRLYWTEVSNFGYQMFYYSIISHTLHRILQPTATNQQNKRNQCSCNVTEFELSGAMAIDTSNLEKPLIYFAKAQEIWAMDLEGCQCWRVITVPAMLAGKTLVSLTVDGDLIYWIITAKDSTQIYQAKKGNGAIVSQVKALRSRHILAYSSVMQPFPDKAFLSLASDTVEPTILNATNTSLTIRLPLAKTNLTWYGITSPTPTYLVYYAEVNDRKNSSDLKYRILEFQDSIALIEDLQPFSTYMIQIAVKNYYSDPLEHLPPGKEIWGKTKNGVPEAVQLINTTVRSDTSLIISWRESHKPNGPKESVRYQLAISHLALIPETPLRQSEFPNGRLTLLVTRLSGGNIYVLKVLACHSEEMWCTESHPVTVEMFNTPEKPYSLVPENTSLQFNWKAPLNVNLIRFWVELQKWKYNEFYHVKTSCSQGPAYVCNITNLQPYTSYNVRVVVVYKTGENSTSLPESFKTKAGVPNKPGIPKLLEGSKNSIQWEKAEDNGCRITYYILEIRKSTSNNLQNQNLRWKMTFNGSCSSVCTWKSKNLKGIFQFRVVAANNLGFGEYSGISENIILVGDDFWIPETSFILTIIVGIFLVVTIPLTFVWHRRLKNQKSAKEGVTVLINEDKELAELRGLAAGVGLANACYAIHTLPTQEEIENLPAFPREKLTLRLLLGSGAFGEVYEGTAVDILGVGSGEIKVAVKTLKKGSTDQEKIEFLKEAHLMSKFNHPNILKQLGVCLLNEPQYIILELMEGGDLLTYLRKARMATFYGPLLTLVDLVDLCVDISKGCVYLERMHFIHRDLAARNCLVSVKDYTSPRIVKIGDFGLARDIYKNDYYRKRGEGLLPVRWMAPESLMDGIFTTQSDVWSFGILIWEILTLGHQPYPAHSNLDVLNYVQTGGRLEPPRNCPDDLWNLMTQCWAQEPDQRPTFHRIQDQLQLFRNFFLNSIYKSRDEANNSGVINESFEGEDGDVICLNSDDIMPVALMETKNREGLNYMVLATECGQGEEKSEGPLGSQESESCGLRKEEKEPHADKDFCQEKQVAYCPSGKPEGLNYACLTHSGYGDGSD
In words: Apoptosis induction (Annexin V / 7-AAD), Ba/F3 FIG-ROS. To be noted: 15 nM, 48 hours. The class given is cell-based. As for the experimental part:
FIG. 5A is a set of three bar graphs depicting the induction of apoptosis in Ba/F3 FIG-ROS, Ba/F3 SLC-ROS and Ba/F3 ALK F1174L cells after 48 hours of treatment with the indicated doses of the indicated compounds. The number of cells that were Annexin V and 7-AAD positive after inhibitor treatment was normalized to number of cells staining positive with these markers with vehicle treatment (basal). A minimum of 2000 cells were counted per condition. Rate of apoptosis is shown as fold over basal. Basal apoptosis in Ba/F3 FIG-ROS, Ba/F3 SLC-ROS and Ba/F3 ALK F1174 cells was 3.6%, 2.8% and 1.2% respectively.

The test system of the next test is HCC78 cells. In words: HCC78 colony formation. Type of test: cell-based, human. To be noted: 10 days, FIG. 1F. The text has this:
FIG. 1F bottom panel is a bar graph depicting the number of colonies observed on the plates from FIG. 1F top panel. Where indicated, **=p<0.01 and ***=p<0.001 by Student's t-test.

A further test relates to HCC4011 cells. In words: Cell viability assay, HCC4011. The class given is cell-based, human. To be noted: HCC4011 cells (activated EGFR), FIG. 6B. The method, then: IC50 was determined from non-linear regression curve fit analysis of the dose response curves.
The test system of another test is NIH3T3 SLC-ROS cells. In words: Soft agar colony formation, NIH3T3 SLC-ROS. Type of test: cell-based. To be noted: at lower doses than crizotinib. The text has this: The bottom panels are bar graphs indicating the number of colonies formed from the plates depicted in the top panels. The values indicate average colony number±SEM from 4 independent wells.
The target in test [1] is Ba/F3 FIG-ROS G1971E cells (Homo sapiens, UniProt P08922, G1971E, cells depend on it). Nature of the test: Cell viability assay, Ba/F3 FIG-ROS G1971E. Type of test: cell-based. The settings on record: Table 3, Ba/F3 FIG-ROS G1971E; nM; read-out: IC50 (the source's name). As for the experimental part: (§3) Cell lines were distributed in 96-well plates and incubated with the indicated concentrations of inhibitor for 72 hours. […] Ba/F3 cell lines were plated at 4×10^3 cells/well. HCC78 and mCC cell lines were plated at 1.5×10^3 cells/well. All cell types were seeded in a final volume of 80 microliters. A 20 microliter volume of five-fold concentrated inhibitor media was added. Cell proliferation was measured using a […] viability assay (CellTiter96 Aqueous One® Solution; Promega). A BioTek Synergy 2® plate reader was used to read the absorbance at 490 nm at 30 minutes and 1 hour after addition of MTS. To facilitate comparison between experiments, the raw MTS absorbance of vehicle (0.1% DMSO) treated cells was set to 1 and absorbance from inhibitor treated wells was normalized to the vehicle treated value. […] Data were normalized using Microsoft Excel® and further non-linear regression curve fit analysis of the normalized data for determination of IC50 was performed using Graphpad Prism® software.
Sequence of Ba/F3 FIG-ROS G1971E cells (P08922 whole entry G1971E): as the sequence (P08922 whole entry, change not shown, the tested form may be a part) above, with G1971E counted along it
(§4) The FIG-ROS-S fusion gene was synthesized using the GeneArt® service. FIG-ROS-S is denoted as FIG-ROS herein.

The target in test [2] is Ba/F3 FIG-ROS L1982F cells (Homo sapiens, UniProt P08922, L1982F, cells depend on it). Nature of the test: Cell viability assay, Ba/F3 FIG-ROS L1982F. The class given is cell-based. To be noted: Table 3, Ba/F3 FIG-ROS L1982F; nM; read-out: IC50 (the source's name). As for the experimental part: as §3, §4
Sequence of Ba/F3 FIG-ROS L1982F cells (P08922 whole entry L1982F): as the sequence (P08922 whole entry, change not shown, the tested form may be a part) above, with L1982F counted along it

Results on 1 molecule are retold here after patent publication US20140243332A1, “METHODS OF TREATING CANCERS CHARACTERIZED BY ABERRENT ROS1 ACTIVITY” (Oregon Health & Science University, priority 2013, published 2014).

pIC50: −log10 of the molar value. Where only a bound is given, the exact number is not on record here.

T1 sequence (P08922 whole entry, change not shown, the tested form may be a part): as the sequence (P08922 whole entry, change not shown, the tested form may be a part) above

In the case of `COc1cc2c(Oc3ccc(NC(=O)C4(C(=O)Nc5ccc(F)cc5)CC4)cc3F)ccnc2cc1OCCCN1CCOCC1` [foretinib, N1′-[3-fluoro-4-[[6-methoxy-7-(3-morpholinopropoxy)-4-quinolyl]oxy]phenyl]-N1-(4-fluorophenyl)cyclopropane-1,1-dicarboxamide], the results for the GI50 (on Ba/F3 SLC-ROS cells; in test [1]; in test [2]) were 0.01 µM, 8.69 nM and 15.3 nM, respectively. Further, the pIC50 with Ba/F3 parental cells was under 5.70. Besides, on Ba/F3 FIG-ROS cells, the apoptosis induction entry is “induced apoptosis”. Besides, the HCC78 colony formation entry in the test on HCC78 cells is “more potently inhibited by foretinib than crizotinib”. In addition, the “sensitivity of cell growth” value in the test with HCC4011 cells is given as “relatively insensitive”. In the test with NIH3T3 SLC-ROS cells, the anchorage-independent colony formation result is reported as “strongly suppressed”.
